Data on 17 compounds can be found in patent publication US20230092890A1, “1, 3, 4-Oxadiazole derivative compounds as histone deacetylase 6 inhibitor, and the pharmaceutical composition comprising the same” (Chong Kun Dang Pharmaceutical Corp., priority 2019, published 2023).

One experiment concerns the target T1, HDAC1 (Homo sapiens, UniProt Q13547).
T1 construct: purchased Enzolifesciences BML-AK511
Kind of experiment: HDAC enzyme activity inhibition (in vitro), HDAC1 Fluorimetric Drug Discovery Assay Kit. It is filed as biochemical. Conditions: samples at 100, 1000 and 10000 nM; 37° C. 60 minutes; fluorescence Ex 390, Em 460; read-out: HDAC1 IC50. The gist of the method:
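Each sample reacted with enzyme for 60 min at 37° C before a 30-min developer step at the same temperature. HDAC1 doses spanned 100 to 10000 nM. Fluorescent signal was read at Ex 390/Em 460.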

Another experiment addresses T2, HDAC6 human recombinant (Homo sapiens, UniProt Q9UBN7).
T2 construct: purchased Calbiochem 382180
T2 sequence (Q9UBN7 1-1215): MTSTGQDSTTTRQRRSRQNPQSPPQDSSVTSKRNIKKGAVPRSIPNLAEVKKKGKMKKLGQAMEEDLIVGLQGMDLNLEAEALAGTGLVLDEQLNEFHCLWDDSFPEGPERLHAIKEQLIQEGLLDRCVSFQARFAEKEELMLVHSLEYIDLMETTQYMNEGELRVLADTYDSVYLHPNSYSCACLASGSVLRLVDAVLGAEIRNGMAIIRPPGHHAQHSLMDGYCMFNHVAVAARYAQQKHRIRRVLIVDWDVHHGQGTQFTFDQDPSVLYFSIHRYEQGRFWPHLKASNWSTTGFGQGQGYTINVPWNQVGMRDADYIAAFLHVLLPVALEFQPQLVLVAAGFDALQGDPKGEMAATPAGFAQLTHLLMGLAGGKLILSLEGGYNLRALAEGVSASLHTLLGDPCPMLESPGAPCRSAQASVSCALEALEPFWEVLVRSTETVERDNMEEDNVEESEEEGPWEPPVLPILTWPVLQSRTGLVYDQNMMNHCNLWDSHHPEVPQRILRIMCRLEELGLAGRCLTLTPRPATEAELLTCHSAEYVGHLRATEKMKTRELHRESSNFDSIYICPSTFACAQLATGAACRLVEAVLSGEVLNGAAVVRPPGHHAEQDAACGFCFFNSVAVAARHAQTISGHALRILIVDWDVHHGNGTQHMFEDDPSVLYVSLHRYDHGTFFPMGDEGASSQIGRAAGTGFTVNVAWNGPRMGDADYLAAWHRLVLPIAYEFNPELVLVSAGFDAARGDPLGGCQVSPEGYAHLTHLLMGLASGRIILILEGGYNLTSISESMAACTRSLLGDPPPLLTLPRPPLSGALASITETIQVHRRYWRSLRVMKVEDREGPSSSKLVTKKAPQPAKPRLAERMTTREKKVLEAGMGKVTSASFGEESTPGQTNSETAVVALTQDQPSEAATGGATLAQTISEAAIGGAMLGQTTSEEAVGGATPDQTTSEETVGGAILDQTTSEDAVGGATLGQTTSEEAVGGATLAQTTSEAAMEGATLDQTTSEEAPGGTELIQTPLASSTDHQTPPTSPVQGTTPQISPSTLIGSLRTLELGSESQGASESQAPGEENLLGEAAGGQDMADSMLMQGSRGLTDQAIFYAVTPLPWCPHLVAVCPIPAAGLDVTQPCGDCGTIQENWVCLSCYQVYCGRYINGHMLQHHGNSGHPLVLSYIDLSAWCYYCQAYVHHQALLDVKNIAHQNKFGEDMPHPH
Kind of experiment: HDAC enzyme activity inhibition (in vitro), HDAC6 assay. Conditions: samples at 0.1, 1, 10, 100 and 1000 nM; 37° C. 60 minutes; fluorescence Ex 390, Em 460; read-out: HDAC6 IC50. It is filed as biochemical. The gist of the method:
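Fluorescence (Ex 390, Em 460) read after a 37° C, 60 min enzyme reaction and a further 30 min developer step at 37° C. Uses recombinant human HDAC6; HDAC1 arm dosed at 100, 1000, 10000 nM.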

Some results are limits rather than exact numbers.

T1 sequence (Q13547 whole entry): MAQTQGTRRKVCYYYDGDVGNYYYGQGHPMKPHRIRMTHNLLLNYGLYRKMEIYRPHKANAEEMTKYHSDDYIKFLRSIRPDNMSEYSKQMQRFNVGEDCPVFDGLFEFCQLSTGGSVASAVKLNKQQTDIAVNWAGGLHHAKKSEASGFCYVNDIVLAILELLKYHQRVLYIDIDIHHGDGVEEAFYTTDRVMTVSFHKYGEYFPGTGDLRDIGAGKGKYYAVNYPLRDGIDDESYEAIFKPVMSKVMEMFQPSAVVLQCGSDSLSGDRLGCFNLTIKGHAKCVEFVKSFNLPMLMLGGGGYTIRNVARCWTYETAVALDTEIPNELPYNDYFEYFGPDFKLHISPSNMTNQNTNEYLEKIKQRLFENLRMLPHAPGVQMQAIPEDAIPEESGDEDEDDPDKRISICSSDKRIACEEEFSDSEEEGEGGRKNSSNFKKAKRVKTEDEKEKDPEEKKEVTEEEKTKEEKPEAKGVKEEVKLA

One may read the IC50 as the concentration needed to halve the response being measured. For `COc1ccc(-c2ccc3c(c2)n(C2CCN(C)CC2)c(=O)n3Cc2ccc(-c3nnc(C(F)F)o3)cc2F)cn1` [Compound 164, 1-(4-(5-(difluoromethyl)-1,3,4-oxadiazole-2-yl)-2-fluorobenzyl)-5-(6-methoxypyridine-3-yl)-3-(1-methylpiperidine-4-yl)-1,3-dihydro-2H-benzo[d]imidazole-2-one], the figures for the IC50 at HDAC1 and at HDAC6 human recombinant were greater than 10 µM and 61 nM, respectively.

Regarding `Cn1c(=O)n(Cc2ccc(-c3nnc(C(F)F)o3)cn2)c2cc(F)c(-c3cccnc3)cc21` [Compound 165, 1-((5-(5-(difluoromethyl)-1,3,4-oxadiazole-2-yl)pyridine-2-yl)methyl)-6-fluoro-3-methy 1-5-(pyridine-3-yl)-1,3-dihydro-2H-benzo[d]imidazole-2-one], the IC50 at HDAC1 was greater than 10 µM; at HDAC6 human recombinant, 10 nM.

Take `Cn1c(=O)n(Cc2ccc(-c3nnc(C(F)F)o3)cn2)c2cc(F)c(-c3cccc(F)c3)cc21` [Compound 166, 1-((5-(5-(difluoromethyl)-1,3,4-oxadiazole-2-yl)pyridine-2-yl)methyl)-6-fluoro-5-(3-fluorophenyl)-3-methyl-1,3-dihydro-2H-benzo[d]imidazole-2-one]: the IC50 on HDAC1 is greater than 10 µM; at HDAC6 human recombinant it was 34 nM.

For `Cn1c(=O)n(Cc2ccc(-c3nnc(C(F)F)o3)cn2)c2cc(F)c(-c3ccc(C(F)(F)F)cc3)cc21` [Compound 167, 1-((5-(5-(difluoromethyl)-1,3,4-oxadiazole-2-yl)pyridine-2-yl)methyl)-6-fluoro-3-methy 1-5-(4-(trifluoromethyl)phenyl)-1,3-dihydro-2H-benzo[d]imidazole-2-one], the IC50 was greater than 10 µM on HDAC1 and 138 nM on HDAC6 human recombinant.

In the case of `Cn1c(=O)n(Cc2ccc(-c3nnc(C(F)F)o3)cn2)c2cc(F)c(-c3ccoc3)cc21` [Compound 168, 1-((5-(5-(difluoromethyl)-1,3,4-oxadiazole-2-yl)pyridine-2-yl)methyl)-6-fluoro-5-(furan-3-yl)-3-methyl-1,3-dihydro-2H-benzo[d]imidazole-2-one], the values for the IC50 at HDAC1 and at HDAC6 human recombinant were greater than 10 µM and 40 nM, respectively.

For `Cn1c(=O)n(Cc2ccc(-c3nnc(C(F)F)o3)cc2F)c2cc(F)c(-c3cccnc3)cc21` [Compound 169, 1-(4-(5-(difluoromethyl)-1,3,4-oxadiazole-2-yl)-2-fluorobenzyl)-6-fluoro-3-methyl-5-(pyridine-3-yl)-1,3-dihydro-2H-benzo[d]imidazole-2-one], the IC50 is greater than 10 µM at HDAC1 and 21 nM at HDAC6 human recombinant.

Turning to `Cc1ccc(-c2cc3c(cc2F)n(Cc2ccc(-c4nnc(C(F)F)o4)cc2F)c(=O)n3C)o1` [Compound 170, 1-(4-(5-(difluoromethyl)-1,3,4-oxadiazole-2-yl)-2-fluorobenzyl)-6-fluoro-3-methyl-5-(5-methylfuran-2-yl)-1,3-dihydro-2H-benzo[d]imidazole-2-one], the results for the IC50 on HDAC1 and at HDAC6 human recombinant were greater than 10 µM and 211 nM, respectively.

With `CC(=O)N1CCC(n2c(=O)n(Cc3ccc(-c4nnc(C(F)F)o4)cn3)c3c(F)cccc32)CC1` [Compound 171, 1-(1-acetylpiperidine-4-yl)-3-((5-(5-(difluoromethyl)-1,3,4-oxadiazole-2-yl)pyridine-2-yl)methyl)-4-fluoro-1,3-dihydro-2H-benzo[d]imidazole-2-one], the figures for the IC50 on HDAC1 and at HDAC6 human recombinant were greater than 10 µM and 40 nM, respectively.

For `CC(=O)N1CCC(n2c(=O)n(Cc3ccc(-c4nnc(C(F)F)o4)cc3)c3cc(F)ccc32)CC1` [Compound 172, 1-(1-acetylpiperidine-4-yl)-3-(4-(5-(difluoromethyl)-1,3,4-oxadiazole-2-yl)benzyl)-5-fluoro-1,3-dihydro-2H-benzo[d]imidazole-2-one], the IC50 was greater than 10 µM at HDAC1 and 34 nM at HDAC6 human recombinant.

As for `CC(=O)N1CCC(n2c(=O)n(Cc3ccc(-c4nnc(C(F)F)o4)cn3)c3cc(F)c(F)cc32)CC1` [Compound 173, 1-(1-acetylpiperidine-4-yl)-3-((5-(5-(difluoromethyl)-1,3,4-oxadiazole-2-yl)pyridine-2-yl)methyl)-5,6-difluoro-1,3-dihydro-2H-benzo[d]imidazole-2-one], the values for the IC50 on HDAC1 and at HDAC6 human recombinant were greater than 10 µM and 31 nM, respectively.

On to `CC(=O)N1CCC(n2c(=O)n(Cc3ccc(-c4nnc(C(F)F)o4)cc3F)c3cc(F)c(F)cc32)CC1` [Compound 174, 1-(1-acetylpiperidine-4-yl)-3-(4-(5-(difluoromethyl)-1,3,4-oxadiazole-2-yl)-2-fluorobenzyl)-5,6-difluoro-1,3-dihydro-2H-benzo[d]imidazole-2-one], for which the IC50 is greater than 10 µM on HDAC1 and 50 nM at HDAC6 human recombinant.

Take `CC(=O)N1CCC(n2c(=O)n(Cc3ccc(-c4nnc(C(F)F)o4)cc3)c3cc(F)c(F)cc32)CC1` [Compound 175, 1-(1-acetylpiperidine-4-yl)-3-(4-(5-(difluoromethyl)-1,3,4-oxadiazole-2-yl)benzyl)-5,6-difluoro-1,3-dihydro-2H-benzo[d]imidazole-2-one]: the IC50 at HDAC1 is greater than 10 µM; on HDAC6 human recombinant it was 50 nM.

Consider `CC(=O)N1CCC(n2c(=O)n(Cc3ccc(-c4nnc(C(F)F)o4)cn3)c3cc(C(F)(F)F)ccc32)CC1` [Compound 176, 1-(1-acetylpiperidine-4-yl)-3-((5-(5-(difluoromethyl)-1,3,4-oxadiazole-2-yl)pyridine-2-yl)methyl)-5-(trifluoromethyl)-1,3-dihydro-2H-benzo[d]imidazole-2-one], for which the results for the IC50 on HDAC1 and on HDAC6 human recombinant were greater than 10 µM and 42 nM, respectively.

Turning to `Cc1ccc(-c2cc3c(cc2F)n(Cc2ccc(-c4nnc(C(F)F)o4)cn2)c(=O)n3C)o1` [Compound 177, 1-((5-(5-(difluoromethyl)-1,3,4-oxadiazole-2-yl)pyridine-2-yl)methyl)-6-fluoro-3-methy 1-5-(5-methylfuran-2-yl)-1,3-dihydro-2H-benzo[d]imidazole-2-one], the IC50 at HDAC1 was greater than 10 µM; on HDAC6 human recombinant, 71 nM.

In the case of `Cc1noc(C)c1-c1cc2c(cc1F)n(Cc1ccc(-c3nnc(C(F)F)o3)cn1)c(=O)n2C` [Compound 178, 1-((5-(5-(difluoromethyl)-1,3,4-oxadiazole-2-yl)pyridine-2-yl)methyl)-5-(3,5-dimethylisoxazole-4-yl)-6-fluoro-3-methyl-1,3-dihydro-2H-benzo[d]imidazole-2-one], the IC50 on HDAC1 is greater than 10 µM; on HDAC6 human recombinant, 20 nM.

`CN1CCC(n2c(=O)n(Cc3ccc(-c4nnc(C(F)F)o4)cc3F)c3ccc(C4CCN(C(=O)CO)CC4)cc32)CC1` [Compound 179, 1-(4-(5-(difluoromethyl)-1,3,4-oxadiazole-2-yl)-2-fluorobenzyl)-5-(1-(2-hydroxyacetyl)piperidine-4-yl)-3-(1-methylpiperidine-4-yl)-1,3-dihydro-2H-benzo[d]imidazole-2-one]: the IC50 at HDAC1 is greater than 10 µM; at HDAC6 human recombinant, 145 nM.

`CC(=O)N1CCC(n2c(=O)n(Cc3ccc(-c4nnc(C(F)F)o4)cc3F)c3cc(C(F)(F)F)ccc32)CC1` [Compound 180, 1-(1-acetylpiperidine-4-yl)-3-(4-(5-(difluoromethyl)-1,3,4-oxadiazole-2-yl)-2-fluorobenzyl)-5-(trifluoromethyl)-1,3-dihydro-2H-benzo[d]imidazole-2-one]: the IC50 was greater than 10 µM at HDAC1 and 38 nM at HDAC6 human recombinant.
